In general, IC50 refers to the midpoint of a concentration-inhibition curve. By bioavailability is commonly meant dose-corrected exposure relative to a reference, in per cent. As a reminder, the EC50 is the concentration needed to bring the measured effect to its halfway point.

Three compounds from patent publication US9809604B2, “DGAT1 inhibitor and preparation method and use thereof” (Qingdao Huanghai Pharmaceutical Co., Ltd., priority 2013, dated 2017) can be followed below.

Data set [1] deals with T1, mouse DGAT1 (Mus musculus, UniProt Q9Z2A7).
T1 construct: made in house
T1 sequence (Q9Z2A7 1-498): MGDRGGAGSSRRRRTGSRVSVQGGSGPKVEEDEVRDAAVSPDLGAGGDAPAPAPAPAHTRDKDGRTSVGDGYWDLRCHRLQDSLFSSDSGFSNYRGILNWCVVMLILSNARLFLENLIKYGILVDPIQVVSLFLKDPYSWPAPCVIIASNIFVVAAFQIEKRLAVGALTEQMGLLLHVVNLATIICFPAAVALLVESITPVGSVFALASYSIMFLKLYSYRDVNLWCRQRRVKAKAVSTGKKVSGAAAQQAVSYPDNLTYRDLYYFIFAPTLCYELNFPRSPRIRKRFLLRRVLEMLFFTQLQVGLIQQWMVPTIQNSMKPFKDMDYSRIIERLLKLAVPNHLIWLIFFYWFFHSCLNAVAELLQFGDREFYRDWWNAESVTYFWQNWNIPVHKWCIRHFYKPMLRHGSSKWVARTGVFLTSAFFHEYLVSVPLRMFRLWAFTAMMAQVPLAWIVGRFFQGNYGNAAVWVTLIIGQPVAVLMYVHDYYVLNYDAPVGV
The experiment in a line: Mouse DGAT1 IC50 enzymatic assay. The class given is biochemical. On the procedure:
Expressing human DGAT1 enzyme, used diacylglycerol and 14C-labeled acyl-CoA as the substrate, choose PE Company Flashplate testing board to build DGAT1 enzyme reaction system. 14C-labeled acyl-CoA binds to diacylglycerol by covalent bonding after enzymology reaction, and generates the product of 14C-labeled triglyceride. 14C-labeled acyl-CoA substrate is dissolved in reaction solution and 14C-labeled triglyceride product combine with phospholipids of Flashplate plate bottom layer, thus effectively separate labeled substrates and products. The radioactive of 14C-labeled triglyceride which is combined with phospholipid layer is counted, and the potencies of DGAT-1 inhibition for the compounds are determined by calculating the IC50 values.
Mouse DGAT1 activity was determined as follows:
Mouse DGAT1 IC50 determination method: in addition to expression of mouse DGAT1, experiment method with human DGAT1 enzymatic assay is the same.

A short description of data set [2]: Solubility at pH 7.4. Type of data set: physicochemical. To be noted: pH 7.4, aqueous buffer; read-out: Sol pH 7.4.
Data set [3] has as its target T2, DGAT1 (Homo sapiens, UniProt O75907).
T2 sequence (O75907 1-488): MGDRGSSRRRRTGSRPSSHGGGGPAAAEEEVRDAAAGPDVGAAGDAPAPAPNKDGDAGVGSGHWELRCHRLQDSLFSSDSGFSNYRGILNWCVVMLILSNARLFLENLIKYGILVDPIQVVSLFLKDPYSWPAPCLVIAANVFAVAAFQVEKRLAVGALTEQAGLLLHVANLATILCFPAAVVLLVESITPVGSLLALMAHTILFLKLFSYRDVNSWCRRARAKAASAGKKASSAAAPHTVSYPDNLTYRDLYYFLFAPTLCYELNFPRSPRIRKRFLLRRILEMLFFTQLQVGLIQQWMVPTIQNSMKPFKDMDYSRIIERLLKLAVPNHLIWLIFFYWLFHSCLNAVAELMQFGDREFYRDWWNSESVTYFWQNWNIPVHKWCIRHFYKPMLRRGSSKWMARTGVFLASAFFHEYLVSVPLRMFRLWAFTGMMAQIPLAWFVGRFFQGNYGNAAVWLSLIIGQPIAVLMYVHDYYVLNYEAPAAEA
The experiment in a line: Human DGAT1 IC50 enzyme assay (Flashplate, 14C-labeled acyl-CoA). Details: made in house. The class given is biochemical. An outline of the steps:
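Radiometric Flashplate format: expressed human DGAT1 transfers 14C-acyl from acyl-CoA onto diacylglycerol, and labeled triglyceride binding the plate's phospholipid layer is counted. Potency reported as IC50; Ki calculated as IC50/(1+[S]/Km).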

The nature of data set [4]: Diet induced obesity in mice. Type of data set: in vivo. To be noted: DIO mice. How it is done:
(2) Diet Induced Obesity in Mice
Male C57bl/6J mice (6 weeks) were individually housed in hanging wire cages at 20-25° C. with a 12:12 hour light:dark cycle (Humidity: 40˜70%). After one week acclimation, the mice are fed with high fat pelleted diet (D12492i, Research Diets, Inc) and fresh water, ad libitum. Typically; C57BL/6J male mice become obese, and reach 40-50 g after 12-14 weeks of high fat diet treatment.
Animals accept oral gavages acclimation for two weeks. Then next, they are dosed with test articles or vehicle (bid) accordingly for 7 day. Food intake and body weight are recorded every day. Data are graphed by Graph Pad Prism 5.0 and evaluated using SPSS, p<0.05 is considered to be statistically significant.

Data set [5] in a line: Plasma pharmacokinetics in male SD rats. To be noted: rat; for AUC(0-t) / half-life / Vd / bioavailability: male, SD, plasma; for AUC(0-t): read-out: AUC0-1 (ng · n/mL); for half-life: read-out: T1/2 (b) (converted); for Vd: intravenous, 2 mg/kg, read-out: Vdss; for bioavailability: oral, 10 mg/kg. Type of data set: in vivo. On the procedure: (3) Pharmacokinetics of Test Compounds
The purpose of this study is to determine the plasma pharmacokinetics of male SD rats. Two animals will receive a solution of test article in vehicle by single intravenous bolus via tail vein; the dosage is 2 mg/kg. Blood samples are taken at specified time points (0, 0.0833, 0.25, 0.5, 1, 2, 4, 7, 24 h) after dosing. Another two animals will receive a solution or suspension of TA in vehicle by oral gavage at 10 mg/kg. The schedule for sample collection is 0.5, 1, 2, 3, 4, 6, 24 h after dosing. A LC/MS/MS method is used to measure the concentration of test compound in plasma. Non-compartmental pharmacokinetic analysis is performed on the plasma concentration-time data. PK parameters of calculations are done using Phoenix WinNonlin. 6.2.1 software program.

Data set [6] concerns the target T2, DGAT1. The experiment in a line: In vitro assay in HEK-293 cells (13C-labeled oleic acid incorporation into TG, LC/MS/MS). Type of data set: cell-based. Details: endogenous DGAT1-expressing catalytic ^13C-labeled oleic acid incorporate to TG; endogenous in cells; host or cells: HEK293. To be noted: for EC50: HEK293 cells. From the text: In Vitro Assay in HEK-293 Cells:
We treated HEK293 cells with stable isotope ^13C-labeled oleic acid and endogenous DGAT1-expressing catalytic ^13C-labeled oleic acid incorporate to TG. The extraction and separation of cell suspension is to obtain the triglycerides composition. A LC/MS/MS method is used to measure the concentration of ^13C in TG to determine catalytic reaction rate of DGAT1, then determine the compound of DGAT1 inhibition (IC50).

Data set [7] concerns plasma triacylglycerol levels. The experiment in a line: Lipid tolerance test in mice. Type of data set: in vivo. How it is done: (1) Lipid Tolerance Test in Mice:
CDI mice (30 g or so) were individually housed in hanging wire cages at 20-25° C. with a 12:12 hour light:dark cycle (Humidity: 40˜70%). The mice had ad libitum access to water. On the day of experimentation, food jars were removed from each cage 16 hours prior to rate received either vehicle or test article based on a randomization plan generated by randomization. After sixty minutes, oral administration (gavage) of corn oil at a dose volume of 6 mL/kg (time=0). Blood samples were obtained from each mouse via tail snip procedure at −0.5, 0.5, 1, 2 and 4 hours. 20 ul of blood sampling will be rapidly collected, and then is centrifuged at 7000 rpm for 10 min to determine plasma triacylglycerol levels. Triglyceride was quantitated using TG ELISA kit. All data will be analyzed using SPSS. p<0.05 is considered to be statistically significant.

The mark [8] stands for this setting: average of first and second, read-out: hDGAT1 IC50(nM) Average.
[9] abbreviates: first determination, read-out: hDGAT1 IC50(nM) First.
[10] abbreviates: second determination, read-out: hDGAT1 IC50(nM) Second.
[11] abbreviates: iv, 1.78-2.06 mg/kg as printed in each cell.

Molecules are shown by their SMILES. Converted amounts (≈) assume the structure as drawn. Read-outs that look alike come from different tables or passages of the source.

With `Cc1cc(N2CCOc3ncnc(N)c3C2=O)cc(C)c1-c1cn(CC(F)(F)F)nc1C` [Compound 41, 4-amino-6-(3,5-dimethyl-4-(3-methyl-1-(2,2,2-trifluoroethyl)-1H-pyrazol-4-yl)phenyl)-7,8-dihydropyrimido[5,4-f][1,4]oxazepin-5(6H)-one], the IC50 in data set [1] was determined as 12.5 nM; in data set [3] (setting [8]), 31.3 nM; in data set [3] (setting [9]), 37.7 nM; in data set [3] (setting [10]), 30 nM. In addition, the solubility in data set [2] is 187 µM (≈ 83.5 µg/mL). Also, in data set [4] (10mpk BID), the “7 days Cumulative Body Weight Change (%)” value is −3.32%. Further, in data set [4] (10mpk BID), the “7 days Cumulative Food Intake Change (%)” value was −16.35%. Further, in data set [5] (setting [11]), the AUC(0-t) came to 2120 ng·h/mL. For the same compound, in data set [5] (po, 8.94-9.33 mg/kg), the half-life was 3.2 h. In data set [5], the Vd turned out to be 1.49 L/kg. In addition, in data set [5], the bioavailability is approximately 100%. The “CI” value in data set [5] is listed as 14.4 mL/min/kg. For the same compound, the concentration giving a half-maximal response (EC50) in data set [6] was 22.1 nM. Further, the “Inhibtion % @ 2 h 1 MPK PO” value in data set [7] was 83% inh.
`Cc1cc(N2CCOc3ncnc(N)c3C2=O)cc(C)c1-c1ccc2ccn(CC(F)(F)F)c(=O)c2c1` [Compound 105, 4-amino-6-(3,5-dimethyl-4-(1-oxo-2-(2,2,2-trifluoroethyl)-1,2-dihydroisoquinolin-7-yl)phenyl)-7,8-dihydropyrimido[5,4-f][1,4]oxazepin-5-(6H)-one]: in data set [1], 33.6 nM corresponded to half-maximal inhibition (IC50). In addition, the solubility in data set [2] worked out at 70 µM (≈ 35.7 µg/mL). Further, in data set [3] (setting [8]), the IC50 came to 31.7 nM. The IC50 in data set [3] (setting [9]) was determined as 27 nM. The IC50 in data set [3] (setting [10]) is 36.4 nM. Also, in data set [4] (10mpk BID), the “7 days Cumulative Body Weight Change (%)” value is on record as −1.06% and the “7 days Cumulative Food Intake Change (%)” value was −8.56%. Besides, in data set [5] (setting [11]), the AUC(0-t) came to 17700 ng·h/mL and the half-life was 3.81 h. For the same compound, the half-life in data set [5] (po, 8.94-9.33 mg/kg) was 2.93 h. Besides, in data set [5], the Vd amounted to 0.54 L/kg, the bioavailability came out at 56.8% and the “CI” value is given as 1.96 mL/min/kg. Besides, the EC50 in data set [6] came out at 3.64 nM. For the same compound, the cell activity entry in data set [6] (compared with Pradigastat) is on record as “better cell activity”. Besides, the “Inhibtion % @ 2 h 1 MPK PO” value in data set [7] was 118% inh.
In the case of `O=C(O)C[C@H]1CC[C@H](c2ccc(-c3ccc(Nc4ccc(C(F)(F)F)nc4)cn3)cc2)CC1` [Pradigastat, reference compound], in data set [1], the IC50 was 30.2 nM. Further, the solubility in data set [2] stood at 22 µM (≈ 10 µg/mL). In data set [3] (setting [8]), the IC50 came to 49 nM. In data set [3] (setting [9]), the IC50 is 68.2 nM. The concentration for half-maximal inhibition (IC50) in data set [3] (setting [10]) was found to be 29.7 nM. Further, in data set [4] (30 mpk BID), the body weight entry is “increased slight” and the food intake entry is listed as “increased slight”. In data set [4] (30mpk BID), the “7 days Cumulative Body Weight Change (%)” value is given as 1.72% and the “7 days Cumulative Food Intake Change (%)” value is 5.85%. Besides, in data set [5] (setting [11]), the AUC(0-t) was 42900 ng·h/mL and the half-life was 2.19 h. In data set [5] (po, 8.94-9.33 mg/kg), the half-life is 2.33 h. Besides, in data set [5], the Vd is 0.15 L/kg, the bioavailability came out at 14.9% and the “CI” value was determined as 0.70 mL/min/kg. In data set [6], this compound yielded an EC50 of 3.65 nM. In addition, in data set [7], the “Inhibtion % @ 2 h 1 MPK PO” value is 34% inh.
